Data reported in patent US7169759B1, “Tetrapeptide inhibitors of β-secretase” (Elan Pharmaceuticals, Inc., priority 1999, dated 2007).
*1 amine or outer side, *2 acyl side, *3 side chain or, on linkers, in order; H or OH if unused. Where a SMILES comes first, the peptide text is derived from it. [ ]: non-standard residue; d: D form. The star is where a group is joined. Sta = CC(C)C[C@H](N)[C@@H](O)CC(=O)O; X1 = CC(C)CC(N[*:1])C(O)CC(=O)[*:2]; Phg = N[CH](C(=O)O)c1ccccc1; Isovaleryl = CC(C)CC(=O)*; Boc = CC(C)(C)OC(=O)*

target: T1, Human brain β-Secretase (Homo sapiens, UniProt P56817); assay: MBP-C125 enzyme inhibition assay (ELISA detection of β-secretase cleavage of MBP-C125 substrate); format: biochemical; conditions: pH 4.5, 37° C., 90 minutes, highest concentration 200 μM, read-out: IC50 Group
T1 construct: Human brain β-Secretase from the concentrated HiQ pool prepared Jul; from tissue; host or cells: human brain
T1 sequence (P56817 46-501): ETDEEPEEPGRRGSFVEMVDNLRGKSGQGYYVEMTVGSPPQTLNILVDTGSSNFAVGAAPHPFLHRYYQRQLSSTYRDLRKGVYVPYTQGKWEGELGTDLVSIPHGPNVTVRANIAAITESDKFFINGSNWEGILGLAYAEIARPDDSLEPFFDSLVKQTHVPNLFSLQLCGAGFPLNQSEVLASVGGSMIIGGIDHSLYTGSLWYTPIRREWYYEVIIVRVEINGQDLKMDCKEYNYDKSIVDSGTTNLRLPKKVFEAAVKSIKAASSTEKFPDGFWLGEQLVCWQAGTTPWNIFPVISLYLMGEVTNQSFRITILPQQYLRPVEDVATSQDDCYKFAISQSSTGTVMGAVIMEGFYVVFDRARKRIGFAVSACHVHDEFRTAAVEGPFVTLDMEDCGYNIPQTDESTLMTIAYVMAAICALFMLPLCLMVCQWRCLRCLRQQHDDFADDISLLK
Experimental: Enzyme Inhibition Assay Purpose/Rationale:
The MBP-C125 assay, determines relative inhibition of β-secretase cleavage of an MPB-C125 substrate by the compounds assayed. Human brain β-Secretase from the concentrated HiQ pool prepared Jul. 16, 1997 in 0.20% Triton is used in the assay. Inhibition data was obtained from an ELISA which uses an anti-MBP capture antibody (on precoated and blocked 96-well high binding plates) followed by incubation with diluted enzyme reaction supernatant, incubation with an anti-SW192 specific biotinylated reporter antibody and incubation with streptavidin/alkaline phosphatase. Detection was effected by a fluorescent substrate signal on cleavage by the phosphatase. The ELISA only detected cleavage following Leu 596 at the substrate's Swedish APP 751 mutation site.
Compounds were diluted in a 1:1 dilution series to a six-point concentration curve (two wells per concentration) which took up one 96-plate row per compound tested.
Each of the test compounds was weighed out into a vial and DMSO was added to make up a 10 mM solution. To obtain a final compound concentration of 200 μM at the high point of a 6-point dilution curve, 100 μL of the 10 mM solution was added to well C1 of a 96-well V-bottom plate. Fifty μL of DMSO was added to odd wells of row C across the plate and 1:1 serial dilutions were made. 10 μL of each dilution was added to each of two wells on row C of a corresponding V-bottom plate to which 190 μL of 52 mM NaOAc/7.9% DMSO, pH 4.5 were pre-added. The NaOAc diluted compound plate was spun down to pellet precipitant and 20 μL/well was transferred to a corresponding flat-bottom plate to which 30 μL of ice-cold enzyme-substrate mixture (2.5 μL MBP-C125 substrate, 0.03 μL enzyme and 24.5 ice cold 0.09% TX100 per 30 μl) was added. The compound concentration in the final enzyme reaction was thus 50 times less than the starting concentration. The final reaction mixture of 200 μM compound for the highest curve point was in 5% DMSO, 20 mM NaAc, 0.06% TX100, at pH 4.5. The enzyme reaction was started by warming the plates to 37° C. After 90 minutes at 37° C., 200 μL/well cold specimen diluent was added to stop the reaction and 20 μL/well was transferred to a corresponding α-MBP coated ELISA plate, containing 80 μL/well specimen diluent. This reaction was incubated overnight at 4° C. and the ELISA was developed the next day using a 2 hr. incubation with α-192SW followed by Streptavidin-AP conjugate and flourescent substrate. The signal was read on a fluorescent plate reader.

IC50 [µM] | Compound
< 10 | CSCCC(NC(=O)C(NC(=O)OC(C)(C)C)C(C)C)C(=O)NC(CC(C)C)C(O)CC(=O)NC(C(=O)NC1CCC(C(=O)O)C(C(=O)O)C1)C(C)C (centres unmarked) [Example 32]
< 10 | CC(=O)NC(C(=O)NC(C(=O)NC(Cc1ccccc1)C(O)CC(=O)NC(C(=O)NCc1ccc(C(=O)O)cc1)C(C)C)c1ccccc1)C(C)C (centres unmarked) [Example 37]
< 10 | CSCCC(NC(=O)C(NC(=O)OC(C)(C)C)C(C)C)C(=O)NC(CC(C)C)C(O)CC(=O)NC(C(=O)NCCc1ccc(O)c([N+](=O)[O-])c1)C(C)C (centres unmarked) [Example 36]
10 to 99 | CSCCC(NC(=O)C(NC(=O)OC(C)(C)C)C(C)C)C(=O)NC(CC(C)C)C(O)CC(=O)NC(C(=O)NC(C(=O)O)c1ccccc1)C(C)C (centres unmarked) [Example 35] (Boc-VM[X1]V[Phg]-OH; configuration not given here)
10 to 99 | CC(C)CC(NC(=O)C(NC(=O)C(NC(=O)OCc1ccccc1)C(C)C)c1ccccc1)C(O)CC(=O)NC(C(=O)NCc1ccc(C(=O)O)cc1)C(C)C (centres unmarked) [Example 38]
10 to 99 | CC(C)CC(NC(=O)C(NC(=O)C(NC(=O)OC(C)(C)C)C(C)C)c1ccccc1)C(O)CC(=O)NC(C(=O)NCc1ccc(C(=O)O)cc1)C(C)C (centres unmarked) [Example 39]
10 to 99 | CSCCC(NC(=O)C(NC(=O)OC(C)(C)C)C(C)C)C(=O)NC(CC(C)C)C(O)CC(=O)NC(C(=O)NC(C)c1ccc(C(=O)O)cc1)C(C)C (centres unmarked) [Example 31]

target: β-secretase (Homo sapiens, UniProt P56817); assay: assays with β-secretase (pepstatin remark); format: biochemical; conditions: not given
Sequence (P56817 46-501): as above

inhibitory activity in assays with β-secretase | Compound
no inhibitory activity | CC(C)CC(=O)N[C@H](C(=O)N[C@H](C(=O)N[C@@H](CC(C)C)[C@@H](O)CC(=O)N[C@@H](C)C(=O)N[C@@H](CC(C)C)[C@@H](O)CC(=O)O)C(C)C)C(C)C [pepstatin] (Isovaleryl-VV[Sta]A[Sta]-OH)
